Assay results as given in article PMC6958387, “Biological Evaluation of Arylsemicarbazone Derivatives as Potential Anticancer Agents” (Pharmaceuticals, 2019).

What was measured:
[1] = test system: Peripheral Blood Mononuclear Cells (PBMCs); experiment: MTT cytotoxicity in normal cells, 72 h; assay type: cell-based, human; settings: Homo sapiens, PBMC, 72 h of incubation
Experimental: In order to evaluate the cytotoxic potential in normal cells, all the derivatives were tested against Peripheral Blood Mononuclear Cells (PBMCs) and the most promising compounds were again compounds 3c and 4a, which offered more selectivity against the cancer cells.
Mononuclear cells were obtained from the peripheral blood of healthy volunteers by heparin tube collection and isolated by Ficoll-Histopaque gradient centrifugation. After centrifugation, the cells were harvested, washed and resuspended in RPMI 1640 medium supplemented with 20% fetal bovine serum, 2 mM glutamine, 100 U/mL penicillin and 100 μg/mL streptomycin (Gibco™ Life Technologies, Waltham, MA, USA). The phytohemagglutinin mitogen 2% was also added into the culture medium. After that, using the neubauer chamber, the cells were counted and plated in a 96-well plate at a concentration of 10^6 cells/mL and then were maintained for overnight under incubation at 37 °C and 5% CO2 [65].
(§1) The evaluation of the cytotoxicity of the compounds was performed by the method of 3-(4,5-dimethyl-2-thiazolyl)-2,5-diphenyl-2H-tetrazolium bromide (MTT) (Sigma Aldrich Co., St. Louis, MO, USA). To perform the assay the cells were seeded in 96-well plates at the following concentrations: HL-60 and K562 (0.3 × 10^6 cells/mL); MOLT-4 and PBMC (10^6 cells/mL); NCI-H292, HT-29, HEp-2 e MCF-7 (10^5 cells/mL). Briefly, the compounds previously dissolved in DMSO (dimethylsulfoxide, Vetec, São Paulo, Brazil), were diluted in medium and added to each well at the desired concentrations. For the calculation of the concentration that inhibits 50% of cell growth (IC50) the compounds were serially diluted to obtain the final concentrations between 0.19–25 μg/mL. Doxorubicin was used as the standard in the concentration range between (0.078–10 μg/mL). After 72 h of contact of the cells with the compounds, it was added to each well 25 μL of MTT solution (5 mg/mL). Plates were left for another 3 h in incubator at 37 °C and at the end of that period the supernatant was aspirated. To perform the reading, 100 μL of DMSO was added in each well for the dissolution of the formazan crystals. The amount of formazan was measured by reading the plate at 560 nm absorbance. The IC50 was calculated from the nonlinear regression in the Prisma 7.0 software (GraphPad, San Diego, CA, USA). Each sample was tested in triplicate in three independent experiments.

MCF-7 = experiment: MTT cytotoxicity, 72 h; assay type: cell-based, human; settings: Homo sapiens, MCF7, 72 h of incubation
Experimental: (§2) The cytotoxicity assessment was performed against three human cancer cell lines in suspension (K562, HL-60 and MOLT-4) and four adhered (HEp-2, NCI-H292, HT-29 and MCF-7).
(§3) The cells were obtained from the Cell Bank of Rio de Janeiro and maintained in the Laboratory of Cell Culture of the Department of Antibiotics of the Federal University of Pernambuco. The lines K562 (myeloblastic leukaemia), HL-60 (promyelocytic leukemia) and MOLT-4 (lymphoblastic leukemia) were cultured in RPMI 1640 medium and the lines HEp-2 (larynx carcinoma), NCI-H292 (lung carcinoma), HT-29 (colon adenocarcinoma) and MCF-7 (breast adenocarcinoma) were cultured in DMEM medium, supplemented with 10% fetal bovine serum, 2 mM glutamine, 100 U/mL penicillin and 100 μg/mL streptomycin (Gibco™ Life Technologies), at 37 °C and 5% CO2.
as §1

HEp-2 = experiment: MTT cytotoxicity, 72 h; assay type: cell-based, human; settings: Homo sapiens, HEp-2, 72 h of incubation
Experimental: as §2, §3, §1

MOLT-4 = experiment: MTT cytotoxicity, 72 h; assay type: cell-based, human; settings: Homo sapiens, MOLT-4, 72 h of incubation
Experimental: as §2, §3, §1

HT-29 = experiment: MTT cytotoxicity, 72 h; assay type: cell-based, human; settings: Homo sapiens, HT-29, 72 h of incubation
Experimental: as §2, §3, §1

K562 = experiment: MTT cytotoxicity, 72 h; assay type: cell-based, human; settings: Homo sapiens, K562, 72 h of incubation
Experimental: as §2, §3, §1

NCI-H292 = experiment: MTT cytotoxicity, 72 h; assay type: cell-based, human; settings: Homo sapiens, NCI-H292, 72 h of incubation
Experimental: as §2, §3, §1

HL-60 = experiment: MTT cytotoxicity, 72 h; assay type: cell-based, human; settings: Homo sapiens, HL-60; MTT, 72 h of incubation
Experimental: as §2, §3, §1

[2] = test system: K562, HL-60, MOLT-4, HEp-2, NCI-H292, HT-29 and MCF-7 tumor cell lines; experiment: Cytotoxic screening against the panel of tumor cell lines (MTT); assay type: cell-based, human; settings: result in words
Experimental: as §2, §3
as §1, with “Plates were left for another 3 h in incubator at 37 °C and at the end of that period the supernatant was aspirated.” left out, “Each sample was tested in triplicate in three independent experiments.” left out

HL-60 cells [3] = experiment: Mitochondrial transmembrane potential (rhodamine 123), flow cytometry; assay type: cell-based, human; settings: 0.11 μM, 72 h
Experimental: In this sense, in order to evaluate if compounds 3c and 4a induce apoptosis by alterating the mitochondria transmembrane potential, this assay was performed by flow cytometry using the fluorochrome rhodamine 123, because this is able to accumulate in cells with unchanged mitochondrial transmembrane potential.
(§4) HL-60 cells (3 × 10^5) were plated in 24-well plates and treated with the compounds 3c (13 and 26 μM) and 4a (11 and 22 μM) for 72 h at 37 °C with 5% CO2. In all trials, doxorubicin was used as a positive control. After the incubation period, an aliquot of 500 μL of treated and untreated cells suspension was transferred to an Eppendorf tube and centrifuged to remove the supernatant and continue the protocol of the test. In the cell viability and annexin V assays, kits were used, ViaCount kit and guava nexin kit (Guava Technologies), respectively. The protocols performed in these tests followed the manufacturer’s instructions. For to analyze mitochondrial depolarization, rhodamine 123 fluorescent dye was used. In the assay for cell cycle analysis and DNA fragmentation propidium iodide was used. The experiments were performed on Guava EasyCyte HT (Merck-Millipore) flow cytometer, acquiring 5000 events. The data were analyzed in Guava-Soft™ software version 2.7. Three independent experiments were performed in triplicate.

HL-60 cells [4] = experiment: Annexin V-FITC/7-AAD test, flow cytometry; assay type: cell-based, human; settings: 0.11 μM, 72 h
Experimental: Aiming to better study the mechanism of induction of death involved in HL-60 cells after treatment with compounds 3c and 4a, a flow cytometric test was performed after double staining with annexin V-FITC/7-AAD. This assay is based on the ability of annexin V to bind with high affinity to phosphatidylserine which is translocated to the outer membrane of apoptotic cells and the 7-AAD dye binds to the DNA of cells with loss of membrane integrity. Thus, in this test it is possible to identify four distinct populations: viable cells [Annexin V(−) and 7-AAD(−)], initial apoptotic cells [Annexin V(+) and 7-AAD(−)], late apoptotic cells [Annexin V(+) and 7-AAD(+)] and dead cells [Annexin V(−) and 7-AAD (+)] [59].
as §4

Row | SMILES | IC50 [1] | IC50 (MCF-7) | IC50 (HEp-2) | IC50 (MOLT-4) | IC50 (HT-29) | IC50 (K562) | IC50 (NCI-H292) | IC50 (HL-60) | melting point | antiproliferative activity against the tested cell lines [2] | depolarized cells (HL-60 cells [3]) | cells in initial apoptosis [Annexin V(+) and 7-AAD(−)] (HL-60 cells [4]) | cells in late apoptosis [Annexin V(+) and 7-AAD(+)] (HL-60 cells [4])
1 | NC(=O)N/N=C/c1ccco1 [Compound 3l, 2-Furfuraldehyde Semicarbazone] | > 100000 nM | > 100000 nM | > 100000 nM | > 100000 nM | > 100000 nM | > 100000 nM | > 100000 nM | > 100000 nM | 202 to 204 °C | inactive | – | – | –
2 | COc1cccc2c1C(=O)c1c(O)c3c(c(O)c1C2=O)C[C@@](O)(C(=O)CO)C[C@@H]3O[C@H]1C[C@H](N)[C@H](O)[C@H](C)O1 [Doxo, doxorubicin, reference compound] | 5330 ± 620 nM | 200 ± 30 nM | 1280 ± 110 nM | 730 ± 80 nM | 730 ± 90 nM | 1470 ± 90 nM | 180 ± 20 nM | 110 ± 10 nM | – | – | 41.8% | 23.7% | 19%
